“Also recorded” adds a separate entry of the source. Where two headings read alike, the source gives them in different places.
Experiments:
[1] = target: T1, full-length recombinant rat vitamin D receptor (Rattus norvegicus, UniProt P13053); conditions: data from U.S. Pat. No. 5,843,928 and J. Med. Chem. 1998, 41, 4662; read-out: Competitive VDR Binding (Ki); cited from earlier work
T1 construct: Full-length recombinant rat receptor was expressed in E. coli BL21(DE3) Codon Plus RIL cells; histidine tag (C); made in house; host or cells: E. coli BL21(DE3) Codon Plus RIL
T1 sequence (P13053 1-423): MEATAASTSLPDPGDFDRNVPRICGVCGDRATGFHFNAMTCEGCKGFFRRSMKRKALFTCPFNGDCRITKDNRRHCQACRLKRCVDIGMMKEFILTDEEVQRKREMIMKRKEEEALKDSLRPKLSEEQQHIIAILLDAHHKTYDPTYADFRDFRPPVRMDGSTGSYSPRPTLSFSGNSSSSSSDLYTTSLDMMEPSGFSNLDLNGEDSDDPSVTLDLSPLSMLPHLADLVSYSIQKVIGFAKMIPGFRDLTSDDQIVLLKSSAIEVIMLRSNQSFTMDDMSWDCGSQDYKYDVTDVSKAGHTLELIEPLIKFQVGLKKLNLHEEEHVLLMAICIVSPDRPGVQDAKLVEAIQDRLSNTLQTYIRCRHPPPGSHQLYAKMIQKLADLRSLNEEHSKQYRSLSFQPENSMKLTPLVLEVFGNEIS

[2] = target: T1, full-length recombinant rat vitamin D receptor; assay: Competitive vitamin D receptor binding; conditions: for binding to the nuclear vitamin D receptor compared with 1,25(OH)2D3: in words
Experimental: The first system was a nickel affinity resin that utilizes the C-terminal histidine tag on this protein. The protein that was eluted from this resin was further purified using ion exchange chromatography (S-Sepharose Fast Flow). Aliquots of the purified protein were quick frozen in liquid nitrogen and stored at −80° C. until use. For use in binding assays, the protein was diluted in TEDK50 (50 mM Tris, 1.5 mM EDTA, pH 7.4, 5 mM DTT, 150 mM KCl) with 0.1% Chaps detergent. The receptor protein and ligand concentration was optimized such that no more than 20% of the added radiolabeled ligand was bound to the receptor.
Radiolabeled and unlabeled ligands were added to 100 μL of the diluted protein at a final ethanol concentration of ≦10%, mixed and incubated overnight on ice to reach binding equilibrium. The following day, 100 μL of hydroxylapatite slurry (50%) was added to each tube and mixed at 10-minute intervals for 30 minutes. The hydroxylapaptite was collected by centrifugation and then washed three times with Tris-EDTA buffer (50 mM Tris, 1.5 mM EDTA, pH 7.4) containing 0.5% Titron X-100. After the final wash, the pellets were transferred to scintillation vials containing 4 mL of Biosafe II scintillation cocktail, mixed and placed in a scintillation counter. Total binding was determined from the tubes containing only radiolabeled ligand.

HL-60 cells = assay: HL-60 differentiation (nitro blue tetrazolium reduction); assay type: cell-based, human
Experimental: The study drugs were dissolved in ethanol and the concentrations determined using UV spectrophotometry. Serial dilutions were prepared so that a range of drug concentrations could be tested without changing the final concentration of ethanol (≦0.2%) present in the cell cultures.
Human promyelocytic leukemia (HL60) cells were grown in RPMI-1640 medium containing 10% fetal bovine serum. The cells were incubated at 37° C. in the presence of 5% CO2.
HL60 cells were plated at 1.2×10^5 cells/mL. Eighteen hours after plating, cells in duplicate were treated with drug. Four days later, the cells were harvested and a nitro blue tetrazolium reduction assay was performed (Collins et al., J. Exp. Med. (1979) 149:969-974). The percentage of differentiated cells was determined by counting a total of 200 cells and recording the number that contained intracellular black-blue formazan deposits.

[3] = test system: 24-hydroxylase (24-OHase) gene promoter in ROS 17/2.8 (bone) cells; assay: In vitro transcription assay (24-hydroxylase promoter luciferase reporter); assay type: cell-based
Experimental: Transcription activity was measured in ROS 17/2.8 (bone) cells that were stably transfected with a 24-hydroxylase (24-Ohase) gene promoter upstream of a luciferase reporter gene (Arbour et al., Analytical Biochem. (1998) 255(1):148-154). Cells were given a range of doses. Sixteen hours after dosing the cells were harvested and luciferase activities were measured using a luminometer. RLU=relative luciferase units.

[4] = test system: bone calcium mobilization; assay: Bone calcium mobilization (serum calcium); assay type: in vivo, rat; conditions: at 780 pM dosage
Experimental: (§1) Male, weanling Sprague-Dawley rats were placed on Diet 11 (0.47% Ca) diet+AEK oil for one week followed by Diet 11 (0.02% Ca)+AEK oil for 3 weeks. The rats were then switched to a diet containing 0.47% Ca for one week followed by two weeks on a diet containing 0.02% Ca. Dose administration began during the last week on 0.02% calcium diet. Four consecutive intraperitoneal doses were given approximately 24 hours apart. Twenty-four hours after the last dose, blood was collected from the severed neck and the concentration of serum calcium determined as a measure of bone calcium mobilization. The first 10 cm of the intestine was also collected for intestinal calcium transport analysis using the everted gut sac method.

[5] = test system: intestinal calcium transport; assay: Intestinal calcium transport (everted gut sac); assay type: in vivo, rat; conditions: for Net Intestinal Ca2+ Transport (S/M): S/M = serosal Ca2+/mucosal Ca2+, at 780 pM dosage; for intestinal calcium transport activity compared with 1,25(OH)2D3: rat gut, in words
Experimental: as §1

[6] = competition with 3H-1,25(OH)2D3, read-out: Ki, binding to the recombinant vitamin D receptor

| Structure (SMILES) | Ki [1] | Ki [2, 6] | binding to the nuclear vitamin D receptor compared with 1,25(OH)2D3 [2] | Net Bone Ca2+ Mobilization [4] | Net Intestinal Ca2+ Transport (S/M) [5] | intestinal calcium transport activity compared with 1,25(OH)2D3 [5] | other results |
| --- | --- | --- | --- | --- | --- | --- | --- |
| C=C1C(O)CC(=CC=C2CCCC3(C)C2CCC3C(C)CCCC(C)(C)O)CC1O [2MD (20R)] | 0.12 nM |  |  |  |  |  |  |
| C=C1C(O)CC(=CC=C2CCCC3(C)C2CCC3C(C)CCCC(C)(C)O)CC1O [2MD (20S), 2-methylene-19-nor-1α,25-dihydroxyvitamin D3] | 0.1 nM |  |  |  |  |  |  |
| C=C1C(O)CC(=CC=C2CCCC3(C)C2CCC3C(C)C(C)(C)CCC(C)(C)O)CC1O [MET-1, (20S)-2-methylene-19-nor-22-dimethyl-1α,25-dihydroxyvitamin D3] |  | 0.04 nM | approximately equally effective as 1,25-(OH)2D3; also recorded: same affinity as 1,25(OH)2D3 | 0.4 mg/dL | 2.3 S/M | noticeably less active than 1,25-(OH)2D3; also recorded: less potent than 1,25(OH)2D3 | EC50 (HL-60 cells; Homo sapiens, HL-60, 96 h, HL-60 cells, 4 days, read-out: concentration inducing the differentiation of HL-60 cells in culture): 0.7 nM; EC50 (HL-60 cells; present compounds, read-out: HL-60 Differentiation (EC50)): 0.7 nM; EC50 ([3]; 16 h, ROS 17/2.8 cells, 16 hours, read-out: concentration stimulating 24-OHase gene expression in bone cells): 0.03 nM |
| C=C1C(O)CC(=CC=C2CCCC3(C)C2CCC3C(C)C(C)(C)CCC(C)(C)O)CC1O [MET-2, (20R)-2-methylene-19-nor-22-dimethyl-1α,25-dihydroxyvitamin D3] |  | 0.05 nM | equally effective as 1,25-(OH)2D3; also recorded: same affinity as 1,25(OH)2D3 | 0.2 mg/dL | 1.2 S/M | noticeably less active than 1,25-(OH)2D3; also recorded: less potent than 1,25(OH)2D3 | Ki ([2]; present compounds, read-out: Competitive VDR Binding (Ki)): 0.05 nM; EC50 (HL-60 cells; HL-60 cells, 4 days, read-out: concentration inducing the differentiation of HL-60 cells in culture): 0.7 nM; EC50 (HL-60 cells; Homo sapiens, HL-60, present compounds, read-out: HL-60 Differentiation (EC50)): 1 nM; EC50 ([3]; ROS 17/2.8 cells, 16 hours, read-out: concentration stimulating 24-OHase gene expression in bone cells): 0.03 nM; EC50 ([3]; present compounds, read-out: 24-OHase Transcription (EC50)): 0.6 nM; potency in 24-hydroxylase gene transcription, times more potent than 1,25(OH)2D3 ([3]; relative to 1,25(OH)2D3): about three; potency in stimulating 24-OHase gene expression, times less potent than 1,25(OH)2D3 ([3]; relative to 1,25(OH)2D3): about 3 times; melting point: 154 °C |
